Each structure is given as a SMILES string.

Ki data for seven molecules are collected here from BindingDB's records for doi:10.1021/jm040209d (University of Illinois At Urbana-Champaign, 2005).

In this test the target is Farnesyl diphosphate synthase (Leishmania major). The experiment in a line: Binding affinity towards Farnesyl diphosphate synthase from leishmania major.

`O=P([O-])(O)C(O)(C[n+]1cccc(Cc2ccccc2)c1)P(=O)(O)O` (configuration not stated) [hydrogen 2-(3-benzylpyridinium-1-yl)-1-hydroxy-1-phosphonoethylphosphonate] displayed a Ki of 160 nM.

Consider `CCCCc1ccc[n+](CC(O)(P(=O)([O-])O)P(=O)(O)O)c1` (configuration not stated) [hydrogen 2-(3-butylpyridinium-1-yl)-1-hydroxy-1-phosphonoethylphosphonate], for which the Ki amounted to 20 nM.

As for `Cc1ccc[n+](CC(O)(P(=O)([O-])O)P(=O)(O)O)c1` (configuration not stated) [hydrogen 1-hydroxy-2-(3-methylpyridinium-1-yl)-1-phosphonoethylphosphonate], the Ki came out at 38 nM.

`O=P([O-])(O)C(O)(C[n+]1cccc(-c2ccc(O)cc2)c1)P(=O)(O)O` (configuration not stated) [sodium hydrogen 1-hydroxy-2-[3-(4-oxidophenyl)pyridinium-1-yl]-1-phosphonoethylphosphonate] came in with a Ki of 75 nM. Against the preceding molecule, the Ki is about 2-fold higher.

In the case of `Cc1cccc(Cc2ccc[n+](CC(O)(P(=O)([O-])O)P(=O)(O)O)c2)c1` (configuration not stated) [hydrogen 1-hydroxy-2-[3-(3-methylbenzyl)pyridinium-1-yl]-1-phosphonoethylphosphonate], the affinity corresponds to a Ki of 70 nM.

`O=P([O-])(O)C(O)(C[n+]1cccc(F)c1)P(=O)(O)O` (configuration not stated) [hydrogen 2-(3-fluoropyridinium-1-yl)-1-hydroxy-1-phosphonoethylphosphonate] displayed a Ki of 50 nM.

`COc1ccc[n+](CC(O)(P(=O)([O-])O)P(=O)(O)O)c1` (configuration not stated) [hydrogen 1-hydroxy-2-(3-methoxypyridinium-1-yl)-1-phosphonoethylphosphonate] yielded a Ki of 30 nM.

For orientation: Ki means the dissociation constant of the complex between target and ligand, obtained from inhibition or displacement. A low value points to tighter binding.
